In paper PMC4581192, “Fenarimol, a Pyrimidine-Type Fungicide, Inhibits Brassinosteroid Biosynthesis” (International Journal of Molecular Sciences, 2015):

Target: T1, CYP90D1 (Arabidopsis thaliana, UniProt Q94IA6)
T1 construct: DNA fragment encoding CYP90D1 mature protein; expressed from pCold-GST in E. coli, fusion protein cleaved with HRV3C protease
T1 sequence (Q94IA6 1-491): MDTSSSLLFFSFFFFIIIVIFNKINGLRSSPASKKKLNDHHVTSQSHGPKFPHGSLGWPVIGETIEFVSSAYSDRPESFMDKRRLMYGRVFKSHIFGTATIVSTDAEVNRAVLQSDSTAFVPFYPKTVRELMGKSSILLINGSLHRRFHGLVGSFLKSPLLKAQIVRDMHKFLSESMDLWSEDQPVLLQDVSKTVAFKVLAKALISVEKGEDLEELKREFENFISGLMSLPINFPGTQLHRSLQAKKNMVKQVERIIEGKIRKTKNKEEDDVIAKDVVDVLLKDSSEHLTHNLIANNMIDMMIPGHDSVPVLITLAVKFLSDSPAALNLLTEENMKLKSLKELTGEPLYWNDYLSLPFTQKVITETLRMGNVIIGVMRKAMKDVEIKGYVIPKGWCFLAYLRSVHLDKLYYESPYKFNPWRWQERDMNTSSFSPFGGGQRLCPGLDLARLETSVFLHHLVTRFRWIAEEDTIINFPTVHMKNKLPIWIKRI
Assay: optical difference spectroscopy (type II spectral titration) of purified recombinant CYP90D1
Type: binding

## OC(c1ccc(Cl)cc1)(c1cncnc1)c1ccccc1Cl (stereo not shown) [FM, fenarimol]
  Kd: 790 nM
